Test system: tubulin
Assay: Electroblotting of tubulin from stained gels (Example 24)
Details: phosphate-buffered saline staining formulation
Protocol: Tubulin was selected as a model protein since it is relatively difficult to elute from gels by simple passive diffusion (Example 23). Two-fold serial dilutions of […] ranging from 1000 to 1 ng are applied and separated by sodium dodecyl sulfate (SDS)-polyacrylamide gel electrophoresis according to standard procedures. After electrophoresis, gels are stained with either Compound 9 or SYPRO Orange dye as described in Example 23, photographed and then incubated in a transfer buffer consisting of 10 mM Tris, 96 mM glycine, 10% methanol, 0.1% sodium dodecyl sulfate, pH 8.3. Proteins are electroblotted to poly(vinylidene difluoride) (PVDF) membranes using the same transfer buffer for 120 minutes using a semi-dry blotter by standard methods. Immunoblotting is performed by standard methods and colorimetric procedures are employed to detect the tubulin using 5-bromo-4-chloroindolyl phosphate/nitroblue tetrazolium (BCIP/NBT). […] Tubulin can subsequently be visualized by using alkaline phosphatase-conjugated secondary antibody with similar detection sensitivity as electroblots of unstained, control gels. The transfer of tubulin from gels stained with SYPRO Orange dye in 7% acetic acid is not possible despite a 20-minute incubation in transfer buffer containing 0.1% sodium dodecyl sulfate prior to blotting.

CCn1c2ccccc2c2cc(/C=C/c3cc[n+](CCCCS(=O)(=O)[O-])c4ccccc34)ccc21 [Compound 9]
Transfer of tubulin from stained gel by electroblotting: readily transferred

From patent US6579718B1, “Carbazolylvinyl dye protein stains” (Molecular Probes, Inc., priority 2000, dated 2003)
